According to paper PMC11864979, “First-in-class ultralong-target-residence-time p38α inhibitors as a mitosis-targeted therapy for colorectal cancer” (Nature Cancer, 2025):
Where two headings read alike, the source gives them in different places.

Legend:
Assay in all cases: selectivity profiling in a panel of 340 wild-type kinases (Reaction Biology Europe)
Format in all cases: binding
340 wild-type kinases [1] = biological target: T1, 340 wild-type kinases (Homo sapiens, UniProt P29323)
T1 construct: purchased Reaction Biology Europe
T1 sequence (P29323 19-1055): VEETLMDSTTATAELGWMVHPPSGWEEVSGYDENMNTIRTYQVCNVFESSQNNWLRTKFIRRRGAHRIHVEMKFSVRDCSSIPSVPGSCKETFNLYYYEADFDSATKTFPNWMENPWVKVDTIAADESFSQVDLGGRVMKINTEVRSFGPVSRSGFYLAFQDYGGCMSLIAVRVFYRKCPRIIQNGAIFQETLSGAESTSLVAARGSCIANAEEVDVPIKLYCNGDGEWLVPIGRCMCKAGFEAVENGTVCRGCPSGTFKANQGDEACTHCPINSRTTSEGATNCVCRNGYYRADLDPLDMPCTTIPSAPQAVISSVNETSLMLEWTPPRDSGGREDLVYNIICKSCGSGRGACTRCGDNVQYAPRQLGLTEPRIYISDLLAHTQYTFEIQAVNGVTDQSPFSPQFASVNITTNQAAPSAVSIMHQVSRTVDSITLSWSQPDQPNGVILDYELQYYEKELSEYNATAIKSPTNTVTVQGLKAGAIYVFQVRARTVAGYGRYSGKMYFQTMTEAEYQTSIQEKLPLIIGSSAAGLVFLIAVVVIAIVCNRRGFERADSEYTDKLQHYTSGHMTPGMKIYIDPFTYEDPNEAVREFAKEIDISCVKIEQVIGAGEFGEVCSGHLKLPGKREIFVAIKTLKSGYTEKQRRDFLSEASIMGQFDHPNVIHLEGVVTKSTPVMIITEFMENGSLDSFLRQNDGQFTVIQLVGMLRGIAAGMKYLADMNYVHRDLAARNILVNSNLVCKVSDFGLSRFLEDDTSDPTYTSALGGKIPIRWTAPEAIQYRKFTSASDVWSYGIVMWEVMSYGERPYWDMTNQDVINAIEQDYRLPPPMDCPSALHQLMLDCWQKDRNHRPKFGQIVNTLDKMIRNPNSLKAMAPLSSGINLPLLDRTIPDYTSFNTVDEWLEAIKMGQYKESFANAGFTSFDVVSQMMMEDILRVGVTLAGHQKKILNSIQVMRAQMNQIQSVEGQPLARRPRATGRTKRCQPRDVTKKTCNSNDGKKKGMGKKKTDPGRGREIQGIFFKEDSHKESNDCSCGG

340 wild-type kinases [2] = biological target: T2, 340 wild-type kinases (Homo sapiens, UniProt Q9Y6E0)
T2 construct: purchased Reaction Biology Europe
T2 sequence (Q9Y6E0 whole entry): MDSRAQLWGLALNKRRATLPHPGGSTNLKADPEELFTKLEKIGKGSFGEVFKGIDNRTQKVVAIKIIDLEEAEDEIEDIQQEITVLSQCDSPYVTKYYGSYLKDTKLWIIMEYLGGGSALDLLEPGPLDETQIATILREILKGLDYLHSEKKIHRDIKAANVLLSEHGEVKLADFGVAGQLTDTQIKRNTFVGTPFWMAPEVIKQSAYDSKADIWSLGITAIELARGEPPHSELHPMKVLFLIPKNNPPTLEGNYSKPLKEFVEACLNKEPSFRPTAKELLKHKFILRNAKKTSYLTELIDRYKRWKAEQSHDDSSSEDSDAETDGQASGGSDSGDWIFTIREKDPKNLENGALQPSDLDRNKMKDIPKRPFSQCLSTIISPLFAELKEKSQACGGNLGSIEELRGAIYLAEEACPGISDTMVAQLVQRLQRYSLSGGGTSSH

340 wild-type kinases [3] = biological target: T3, 340 wild-type kinases (Homo sapiens, UniProt Q02779)
T3 construct: purchased Reaction Biology Europe
T3 sequence (Q02779 whole entry): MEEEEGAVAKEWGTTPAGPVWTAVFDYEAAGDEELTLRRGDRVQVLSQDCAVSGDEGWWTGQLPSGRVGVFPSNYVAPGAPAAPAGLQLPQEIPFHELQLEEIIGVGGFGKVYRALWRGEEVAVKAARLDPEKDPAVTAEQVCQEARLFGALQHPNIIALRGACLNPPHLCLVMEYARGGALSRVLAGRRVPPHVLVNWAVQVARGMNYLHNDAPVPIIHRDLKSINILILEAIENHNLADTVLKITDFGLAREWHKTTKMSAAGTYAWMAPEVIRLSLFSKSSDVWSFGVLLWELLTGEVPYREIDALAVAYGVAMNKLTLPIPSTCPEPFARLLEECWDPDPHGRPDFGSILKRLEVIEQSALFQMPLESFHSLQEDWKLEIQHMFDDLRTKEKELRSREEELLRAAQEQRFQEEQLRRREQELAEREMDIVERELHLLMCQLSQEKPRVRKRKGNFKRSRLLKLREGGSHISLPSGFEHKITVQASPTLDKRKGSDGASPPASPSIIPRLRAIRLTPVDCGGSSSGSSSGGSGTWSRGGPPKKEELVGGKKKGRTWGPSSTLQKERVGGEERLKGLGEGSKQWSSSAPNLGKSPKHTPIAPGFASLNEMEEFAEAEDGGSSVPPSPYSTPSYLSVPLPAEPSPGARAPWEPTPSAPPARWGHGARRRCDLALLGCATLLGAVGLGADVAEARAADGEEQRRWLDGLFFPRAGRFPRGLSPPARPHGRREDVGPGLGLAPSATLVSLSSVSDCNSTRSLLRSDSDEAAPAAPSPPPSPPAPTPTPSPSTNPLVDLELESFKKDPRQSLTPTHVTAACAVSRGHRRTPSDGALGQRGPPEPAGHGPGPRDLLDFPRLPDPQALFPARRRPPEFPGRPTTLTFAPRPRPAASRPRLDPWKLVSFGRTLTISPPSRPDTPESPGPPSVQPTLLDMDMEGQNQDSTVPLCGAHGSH

340 wild-type kinases [4] = biological target: T4, 340 wild-type kinases (Homo sapiens, UniProt Q8IWQ3)
T4 construct: purchased Reaction Biology Europe
T4 sequence (Q8IWQ3 1-736): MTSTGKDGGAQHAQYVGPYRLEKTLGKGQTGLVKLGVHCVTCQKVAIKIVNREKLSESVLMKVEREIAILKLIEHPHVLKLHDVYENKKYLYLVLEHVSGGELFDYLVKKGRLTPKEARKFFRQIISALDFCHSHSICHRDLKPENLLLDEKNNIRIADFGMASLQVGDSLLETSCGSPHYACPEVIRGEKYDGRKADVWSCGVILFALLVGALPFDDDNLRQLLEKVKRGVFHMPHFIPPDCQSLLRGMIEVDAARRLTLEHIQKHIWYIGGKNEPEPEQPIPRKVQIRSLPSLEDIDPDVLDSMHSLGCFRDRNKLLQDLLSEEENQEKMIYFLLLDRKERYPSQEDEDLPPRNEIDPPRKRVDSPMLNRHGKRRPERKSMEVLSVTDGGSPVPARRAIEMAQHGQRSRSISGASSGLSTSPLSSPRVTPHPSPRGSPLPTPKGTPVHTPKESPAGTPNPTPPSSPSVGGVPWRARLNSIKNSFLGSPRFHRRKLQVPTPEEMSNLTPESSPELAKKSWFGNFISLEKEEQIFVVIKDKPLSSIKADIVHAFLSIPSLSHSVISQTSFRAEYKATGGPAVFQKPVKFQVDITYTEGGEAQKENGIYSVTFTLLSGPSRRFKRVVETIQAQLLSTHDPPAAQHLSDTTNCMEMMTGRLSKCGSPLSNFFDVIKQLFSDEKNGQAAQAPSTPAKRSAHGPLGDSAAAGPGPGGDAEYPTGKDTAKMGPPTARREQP

340 wild-type kinases [5] = biological target: T5, 340 wild-type kinases (Homo sapiens, UniProt Q8N4C8)
T5 construct: purchased Reaction Biology Europe
T5 sequence (Q8N4C8 whole entry): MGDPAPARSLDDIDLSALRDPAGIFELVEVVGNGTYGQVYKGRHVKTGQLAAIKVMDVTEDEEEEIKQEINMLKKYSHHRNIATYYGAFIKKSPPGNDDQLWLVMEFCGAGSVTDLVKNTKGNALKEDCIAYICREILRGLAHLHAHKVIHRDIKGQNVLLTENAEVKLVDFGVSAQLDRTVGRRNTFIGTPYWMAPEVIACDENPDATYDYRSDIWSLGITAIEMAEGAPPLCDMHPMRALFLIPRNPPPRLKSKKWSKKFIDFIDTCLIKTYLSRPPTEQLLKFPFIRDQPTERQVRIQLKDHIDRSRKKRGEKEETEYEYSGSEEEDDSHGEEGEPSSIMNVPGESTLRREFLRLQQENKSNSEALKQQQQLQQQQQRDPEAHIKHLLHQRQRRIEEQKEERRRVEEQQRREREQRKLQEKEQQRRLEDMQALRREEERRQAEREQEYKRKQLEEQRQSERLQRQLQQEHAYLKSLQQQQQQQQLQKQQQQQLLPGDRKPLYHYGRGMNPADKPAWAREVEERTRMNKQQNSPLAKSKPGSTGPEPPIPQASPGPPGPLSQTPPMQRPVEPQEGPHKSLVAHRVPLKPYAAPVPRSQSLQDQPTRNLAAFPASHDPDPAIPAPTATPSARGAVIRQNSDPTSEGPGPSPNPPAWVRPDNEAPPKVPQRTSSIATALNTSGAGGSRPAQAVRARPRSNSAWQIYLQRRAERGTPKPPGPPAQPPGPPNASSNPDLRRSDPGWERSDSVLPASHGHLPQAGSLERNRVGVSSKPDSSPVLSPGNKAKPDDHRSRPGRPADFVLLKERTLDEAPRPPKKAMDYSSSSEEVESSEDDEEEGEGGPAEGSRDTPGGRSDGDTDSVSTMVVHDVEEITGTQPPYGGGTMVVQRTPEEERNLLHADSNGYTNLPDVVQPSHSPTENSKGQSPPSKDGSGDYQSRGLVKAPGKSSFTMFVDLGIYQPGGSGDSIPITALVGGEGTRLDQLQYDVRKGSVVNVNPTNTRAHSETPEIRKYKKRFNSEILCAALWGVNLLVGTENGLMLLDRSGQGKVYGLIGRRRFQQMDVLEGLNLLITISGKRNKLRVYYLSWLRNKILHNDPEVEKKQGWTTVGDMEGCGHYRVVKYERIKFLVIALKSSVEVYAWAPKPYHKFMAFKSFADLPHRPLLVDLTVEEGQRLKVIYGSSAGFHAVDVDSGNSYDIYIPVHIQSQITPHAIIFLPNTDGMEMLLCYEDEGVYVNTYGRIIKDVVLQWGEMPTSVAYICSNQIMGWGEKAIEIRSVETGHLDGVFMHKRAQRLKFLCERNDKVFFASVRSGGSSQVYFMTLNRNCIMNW

Compound `CNC(=O)c1ccc2c(c1)C(=O)c1ccc(Nc3ccc(F)c(NC(=O)C4CC4)c3)cc1CC2` [Compound 2015] has a remaining activity at 0.2 µM (340 wild-type kinases [1]; 0.2 µM 2015, read-out: EPHB2 residual activity) of 97.4%, a remaining activity at 1 µM (340 wild-type kinases [1]; 1 µM 2015, read-out: EPHB2 residual activity) of 98.5% and a remaining activity at 0.2 µM (340 wild-type kinases [1]; EPHB2, 0.2 µM, read-out: residual activity) of 97.4%. For the same compound, the remaining activity at 1 µM (340 wild-type kinases [1]; EPHB2, 1 µM, read-out: residual activity) was 98.5%, the remaining activity at 0.2 µM (340 wild-type kinases [2]; 0.2 µM 2015, read-out: MST3 residual activity) was 119% and the remaining activity at 1 µM (340 wild-type kinases [2]; 1 µM 2015, read-out: MST3 residual activity) was 117%. For the same compound, the remaining activity at 0.2 µM (340 wild-type kinases [2]; MST3, 0.2 µM, read-out: residual activity) was 119%, the remaining activity at 1 µM (340 wild-type kinases [2]; MST3, 1 µM, read-out: residual activity) was 117% and the remaining activity at 0.2 µM (340 wild-type kinases [3]; 0.2 µM 2015, read-out: MAP3K10 residual activity) was 111%. It also gave a remaining activity at 1 µM (340 wild-type kinases [3]; 1 µM 2015, read-out: MAP3K10 residual activity) of 106%, a remaining activity at 0.2 µM (340 wild-type kinases [3]; MAP3K10, 0.2 µM, read-out: residual activity) of 111% and a remaining activity at 1 µM (340 wild-type kinases [3]; MAP3K10, 1 µM, read-out: residual activity) of 106%. The remaining activity at 0.2 µM (340 wild-type kinases [4]; 0.2 µM 2015, read-out: BRSK2 residual activity) was 103%, the remaining activity at 1 µM (340 wild-type kinases [4]; 1 µM 2015, read-out: BRSK2 residual activity) was 101% and the remaining activity at 0.2 µM (340 wild-type kinases [4]; BRSK2, 0.2 µM, read-out: residual activity) was 103%. The remaining activity at 1 µM (340 wild-type kinases [4]; BRSK2, 1 µM, read-out: residual activity) was 101%, the remaining activity at 0.2 µM (340 wild-type kinases [5]; 0.2 µM 2015, read-out: MINK1 residual activity) was 88.4% and the remaining activity at 1 µM (340 wild-type kinases [5]; 1 µM 2015, read-out: MINK1 residual activity) was 84.4%. It also gave a remaining activity at 0.2 µM (340 wild-type kinases [5]; MINK1, 0.2 µM, read-out: residual activity) of 88.4% and a remaining activity at 1 µM (340 wild-type kinases [5]; MINK1, 1 µM, read-out: residual activity) of 84.4%.
